The values that follow come from ChEMBL document CHEMBL1201862, “PubChem BioAssay data set” (2004).

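Following 48 hours of exposure in 96-well plates, responses at five concentrations were used to interpolate endpoints linearly. GI50 = concentration required for 50% inhibition of growth.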 Active and inactive are the calls of the source. Rule as the data show it: active = GI50 up to about 1.1 µM and inactive = higher.

Some test systems named below: A549; BT-549; DU-145; EKVX; HCC 2998; HL-60; HOP-62; MDA-N; RPMI-8226; SF-295; SF-539; SK-MEL-5; T47D; TK-10; UACC-62; UO-31; OVCAR-4.
Assay in all cases: growth of human tumour cells (NCI), 48 h

Consider `O=C(COC(=O)c1ccccc1)c1ccc(Br)cc1`, for which the GI50 was 17.2 µM (inactive) in the assay with A549; 6.14 µM (inactive) with BT-549; 19.5 µM (inactive) in the assay with DU-145; 14.7 µM (inactive) in the assay with EKVX; 13.3 µM (inactive) in the assay with HCC 2998; 6.64 µM (inactive) in the assay with HL-60. Further, the GI50 in the assay with HOP-62 is 18.5 µM (inactive); with MDA-N it was 4.71 µM (inactive); with RPMI-8226, 3.39 µM (inactive); in the assay on SF-295, 15.8 µM (inactive); with SF-539 it was 15.1 µM (inactive); with SK-MEL-5 it was 14.5 µM (inactive). Also, the GI50 with T47D was 9.06 µM (inactive); in the assay with TK-10, 2.58 µM (inactive); in the assay on UACC-62, 13 µM (inactive); with UO-31, 1.89 µM (inactive).

Regarding `O=c1oc2ccc([N+](=O)[O-])cc2c(Nc2ccc3c(c2)Oc2ccccc2O3)c1[N+](=O)[O-]`, the GI50 in the assay with A549 is 32.1 µM (inactive); with BT-549, 30.4 µM (inactive); in the assay on DU-145, 59.7 µM (inactive); in the assay on EKVX it was 31.6 µM (inactive); in the assay with HCC 2998, 27.7 µM (inactive); in the assay with HL-60, 21.3 µM (inactive). The GI50 in the assay on HOP-62 was 38.9 µM (inactive); in the assay with MDA-N it was 36.2 µM (inactive); in the assay with OVCAR-4, 42 µM (inactive); in the assay on RPMI-8226, 23.3 µM (inactive); in the assay with SF-295, 43.6 µM (inactive); with SF-539 it was 25.4 µM (inactive). Further, the GI50 with SK-MEL-5 was 29.1 µM (inactive); in the assay with T47D it was 50.2 µM (inactive); in the assay on TK-10 it was 37.3 µM (inactive); with UACC-62, 25.6 µM (inactive); with UO-31, 69.2 µM (inactive).

With `CCOC(=O)N1c2ccccc2N(C(=O)OCC)C1CC(=O)/C=C/c1ccccc1`, the GI50 was 3.36 µM (inactive) with A549; 2.89 µM (inactive) in the assay on BT-549; 2.69 µM (inactive) in the assay with DU-145; 2.79 µM (inactive) with EKVX; 3 µM (inactive) in the assay with HCC 2998; 2.61 µM (inactive) with HL-60. The GI50 with HOP-62 is 3.99 µM (inactive); in the assay with MDA-N it was 3.57 µM (inactive); in the assay with OVCAR-4 it was 2.23 µM (inactive); in the assay on RPMI-8226 it was 3.19 µM (inactive); in the assay on SF-295 it was 4.05 µM (inactive); with SK-MEL-5, 2.47 µM (inactive). Besides, the GI50 in the assay with T47D is 5.16 µM (inactive); with TK-10, 3.74 µM (inactive); in the assay on UACC-62, 2.7 µM (inactive); in the assay on UO-31 it was 3.82 µM (inactive).

`c1cc2cc3c4c5c(cc6ccc7cc8cc9c%10c8c8c7c6c5c8c5c%10c(c1C9N1CCOCCOCCOCCOCCOCC1)c2c45)C3` (centres undefined): the GI50 in the assay with A549, in the assay with BT-549, in the assay with DU-145, in the assay on EKVX, in the assay on HCC 2998 and in the assay on HL-60 was > 100 µM (inactive) each time. Besides, the GI50 in the assay on HOP-62, with MDA-N, in the assay on OVCAR-4, in the assay on RPMI-8226, in the assay with SF-295 and in the assay on SF-539 was > 100 µM (inactive) in each case. In addition, the GI50 in the assay on SK-MEL-5 is 78.9 µM (inactive); in the assay with T47D, > 100 µM (inactive); in the assay with TK-10, > 100 µM (inactive); in the assay with UACC-62 it was > 100 µM (inactive); with UO-31, > 100 µM (inactive).

On to `COc1cccc(-c2cc(O)c3cc(N4CCN(C)CC4)ccc3n2)c1`, for which the GI50 with A549 is 2.39 µM (inactive); in the assay with BT-549 it was 4.46 µM (inactive); in the assay with DU-145, 3.21 µM (inactive); with EKVX, 3.37 µM (inactive); in the assay on HCC 2998 it was 2.01 µM (inactive); with HL-60, 0.537 µM (active). For the same compound, the GI50 in the assay with HOP-62 was 1.64 µM (inactive); with MDA-N it was 0.265 µM (active); in the assay with OVCAR-4, 5.28 µM (inactive); in the assay on RPMI-8226, 3.35 µM (inactive); in the assay with SF-295 it was 1.71 µM (inactive); in the assay on SF-539, 0.557 µM (active). Besides, the GI50 with SK-MEL-5 is 0.454 µM (active); in the assay with T47D, > 10 µM (inactive); with TK-10 it was 9.64 µM (inactive); with UACC-62, 1.28 µM (inactive); in the assay on UO-31, 6.9 µM (inactive).

`COc1ccc(/C=N/NS(=O)(=O)c2ccc(/C=C3\NC(=O)N(C)C3=O)cc2)cc1`: the GI50 with A549 is > 100 µM (inactive); in the assay on BT-549, > 100 µM (inactive); in the assay on DU-145, > 100 µM (inactive); in the assay on EKVX, 89.9 µM (inactive); in the assay on HCC 2998, > 100 µM (inactive); in the assay on HL-60, 67 µM (inactive). Also, the GI50 is 40.2 µM (inactive) with HOP-62; > 100 µM (inactive) in the assay on MDA-N; 43.9 µM (inactive) in the assay with OVCAR-4; > 100 µM (inactive) with RPMI-8226; 55 µM (inactive) with SF-295; > 100 µM (inactive) in the assay on SK-MEL-5. In addition, the GI50 is > 100 µM (inactive) in the assay on T47D, 49.3 µM (inactive) with TK-10, 98.9 µM (inactive) in the assay with UACC-62 and 50.4 µM (inactive) in the assay on UO-31.

Take `OC(COc1cccc2ccccc12)CN1CCOCC1` (centres undefined): the GI50 in the assay on A549 is > 100 µM (inactive); in the assay with BT-549 it was > 100 µM (inactive); in the assay with DU-145, > 100 µM (inactive); in the assay on EKVX it was 95.1 µM (inactive); in the assay with HCC 2998, > 100 µM (inactive); in the assay on HL-60 it was > 100 µM (inactive). Also, the GI50 in the assay on HOP-62, with MDA-N, with OVCAR-4, in the assay on RPMI-8226, in the assay on SF-295 and in the assay with SF-539 was > 100 µM (inactive) throughout. Further, the GI50 with SK-MEL-5, with T47D, in the assay on TK-10, in the assay with UACC-62 and with UO-31 was > 100 µM (inactive) throughout.

For the compound `N#Cc1c(NCCc2ccc(F)cc2)c2ccccc2n2c1nc1ccccc12`, the GI50 with A549 is 33.7 µM (inactive); in the assay on BT-549, 21.2 µM (inactive); in the assay with DU-145, 19.6 µM (inactive); with EKVX, 10.2 µM (inactive); with HCC 2998 it was 40.3 µM (inactive); with HL-60, > 100 µM (inactive). Further, the GI50 with HOP-62 was 5.27 µM (inactive); in the assay on MDA-N, 21.3 µM (inactive); in the assay with OVCAR-4 it was 2.45 µM (inactive); in the assay with RPMI-8226, 46.8 µM (inactive); in the assay with SF-295, 10.7 µM (inactive); in the assay with SF-539 it was 9.27 µM (inactive). Also, the GI50 is 22.4 µM (inactive) in the assay on T47D, 12.5 µM (inactive) with TK-10, 7.6 µM (inactive) in the assay on UACC-62 and 13.7 µM (inactive) with UO-31.

As for `CCCCCCCC(CC(=O)NC(CO)C(=O)NC(CO)CC(C)C)OC(=O)CC(CCCCCCC)OC(=O)CC(CCCCCCC)OC1OC(C)C(O)C(OC2OC(C)C(OC(C)=O)C(O)C2O)C1O` (centres undefined), the GI50 was 11.2 µM (inactive) with A549; 6.17 µM (inactive) in the assay with BT-549; 11.8 µM (inactive) with DU-145; 14.9 µM (inactive) with EKVX; 5.05 µM (inactive) in the assay with HCC 2998; 2.92 µM (inactive) with HL-60. Further, the GI50 in the assay on HOP-62 was 17.1 µM (inactive); in the assay with MDA-N, 3.4 µM (inactive); in the assay with OVCAR-4, 5.01 µM (inactive); in the assay with SF-295, 12 µM (inactive); in the assay with SF-539, 11 µM (inactive); in the assay on SK-MEL-5, 10 µM (inactive). Moreover, the GI50 with T47D is 9.14 µM (inactive); with TK-10, 16.1 µM (inactive); with UACC-62, 6.34 µM (inactive); in the assay with UO-31, 15.4 µM (inactive).

In the case of `NCCCN(CCCCN(CCCN)Cc1ccc2ccccc2c1)Cc1ccc2ccccc2c1`, the GI50 with A549 is 1.68 µM (inactive); with BT-549, 2.23 µM (inactive); in the assay on DU-145, 2.22 µM (inactive); in the assay with EKVX it was 1.77 µM (inactive); with HCC 2998, 2.86 µM (inactive); in the assay on HL-60, 3.76 µM (inactive). In addition, the GI50 in the assay with MDA-N is 1.88 µM (inactive); with OVCAR-4, 1.99 µM (inactive); in the assay with RPMI-8226 it was 2.74 µM (inactive); with SF-295, 2.12 µM (inactive); with SF-539, 1.8 µM (inactive); in the assay on SK-MEL-5, 1.92 µM (inactive). In addition, the GI50 in the assay with T47D is 2.42 µM (inactive); in the assay on TK-10 it was 2.21 µM (inactive); in the assay with UACC-62, 2.08 µM (inactive); with UO-31, 2.32 µM (inactive).

As to `NCCCN(CCCN(C(=O)Nc1ccccc1)c1ccccc1)C(=O)Nc1ccccc1`, the GI50 is 47.1 µM (inactive) with A549; 31 µM (inactive) in the assay on BT-549; 36.8 µM (inactive) in the assay on DU-145; 58.7 µM (inactive) in the assay on EKVX; 25.6 µM (inactive) with HCC 2998; 28.1 µM (inactive) in the assay on HL-60. For the same compound, the GI50 in the assay on HOP-62 is 25.1 µM (inactive); with MDA-N, 40.5 µM (inactive); in the assay with RPMI-8226, 27.7 µM (inactive); in the assay with SF-295 it was 23.2 µM (inactive); with SK-MEL-5, 18.5 µM (inactive); in the assay on T47D, 28.2 µM (inactive). For the same compound, the results for the GI50 in the assay on TK-10, in the assay with UACC-62 and with UO-31 were 38.4 µM (inactive), 23.1 µM (inactive) and 20.8 µM (inactive), respectively.

Consider `CCCCCC(C(O)C#N)C(O)(C(F)(F)F)C(F)(F)F` (centres undefined), for which the GI50 with A549, in the assay on BT-549, with DU-145, with HCC 2998, in the assay on HL-60 and with HOP-62 was > 10 µM (inactive) each time. Also, the GI50 in the assay on MDA-N, in the assay on OVCAR-4, with RPMI-8226, in the assay on SF-295, in the assay on SF-539 and in the assay with SK-MEL-5 was > 10 µM (inactive) throughout. Also, the GI50 in the assay on T47D, in the assay on TK-10 and in the assay with UACC-62 was > 10 µM (inactive) throughout.
